Columns and labels:
Test in all cases: radiometric filter-binding kinase assay
[1] = test system: AKT1 (human), P31749 [S473D]
AURKA (human) = AURKA (human) (UniProt O14965)
BRSK1 (human) = BRSK1 (human) (UniProt Q8TDC3)
DYRK2 (human) = DYRK2 (human) (UniProt Q92630)
EEF2K (human) = EEF2K (human) (UniProt O00418)
EPHA2 (human) = EPHA2 (human) (UniProt P29317)
EPHB3 (human) = EPHB3 (human) (UniProt P54753)
ERBB4 (human) = ERBB4 (human) (UniProt Q15303)
GSK3B (human) = GSK3B (human) (UniProt P49841)
Chain of GSK3B (human) (P49841 whole entry, looked up): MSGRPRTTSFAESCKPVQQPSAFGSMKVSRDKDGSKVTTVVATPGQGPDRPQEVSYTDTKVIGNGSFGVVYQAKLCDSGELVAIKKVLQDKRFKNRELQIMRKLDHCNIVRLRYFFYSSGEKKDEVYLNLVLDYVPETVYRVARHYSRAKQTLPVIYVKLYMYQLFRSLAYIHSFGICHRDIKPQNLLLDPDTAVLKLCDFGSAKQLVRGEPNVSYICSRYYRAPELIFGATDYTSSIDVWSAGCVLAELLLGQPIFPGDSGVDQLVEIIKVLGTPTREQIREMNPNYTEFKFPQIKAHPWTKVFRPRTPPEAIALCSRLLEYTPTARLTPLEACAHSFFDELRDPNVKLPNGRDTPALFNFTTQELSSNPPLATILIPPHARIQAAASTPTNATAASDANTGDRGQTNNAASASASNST

HIPK3 (human) = HIPK3 (human) (UniProt Q9H422)
INSR (human) = INSR (human) (UniProt P06213)
IRAK4 (human) = IRAK4 (human) (UniProt Q9NWZ3)
Chain of IRAK4 (human) (Q9NWZ3 whole entry, looked up): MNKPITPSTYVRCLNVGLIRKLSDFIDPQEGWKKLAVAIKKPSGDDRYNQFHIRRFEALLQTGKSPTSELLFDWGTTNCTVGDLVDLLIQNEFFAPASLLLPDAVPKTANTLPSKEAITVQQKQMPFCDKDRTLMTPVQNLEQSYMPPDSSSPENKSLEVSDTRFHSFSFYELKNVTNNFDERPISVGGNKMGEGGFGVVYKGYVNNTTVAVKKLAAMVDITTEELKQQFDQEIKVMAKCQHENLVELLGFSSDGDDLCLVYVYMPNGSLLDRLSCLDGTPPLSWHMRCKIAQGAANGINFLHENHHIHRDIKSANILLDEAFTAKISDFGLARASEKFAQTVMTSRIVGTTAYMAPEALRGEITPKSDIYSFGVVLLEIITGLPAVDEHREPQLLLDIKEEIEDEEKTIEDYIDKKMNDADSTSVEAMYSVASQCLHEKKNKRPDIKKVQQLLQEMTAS

MAP2K2 (human) = MAP2K2 (human) (UniProt P36507)
MAP2K6 (human) = MAP2K6 (human) (UniProt P52564)
MAP3K1 (human) = MAP3K1 (human) (UniProt Q13233)
MAP3K11 (human) = MAP3K11 (human) (UniProt Q16584)
MAP3K5 (human) = MAP3K5 (human) (UniProt Q99683)
MAP3K7 TAB1 (human) = MAP3K7 TAB1 (human) (UniProt Q15750+O43318)
Chain of MAP3K7 TAB1 (human) (O43318 whole entry, looked up): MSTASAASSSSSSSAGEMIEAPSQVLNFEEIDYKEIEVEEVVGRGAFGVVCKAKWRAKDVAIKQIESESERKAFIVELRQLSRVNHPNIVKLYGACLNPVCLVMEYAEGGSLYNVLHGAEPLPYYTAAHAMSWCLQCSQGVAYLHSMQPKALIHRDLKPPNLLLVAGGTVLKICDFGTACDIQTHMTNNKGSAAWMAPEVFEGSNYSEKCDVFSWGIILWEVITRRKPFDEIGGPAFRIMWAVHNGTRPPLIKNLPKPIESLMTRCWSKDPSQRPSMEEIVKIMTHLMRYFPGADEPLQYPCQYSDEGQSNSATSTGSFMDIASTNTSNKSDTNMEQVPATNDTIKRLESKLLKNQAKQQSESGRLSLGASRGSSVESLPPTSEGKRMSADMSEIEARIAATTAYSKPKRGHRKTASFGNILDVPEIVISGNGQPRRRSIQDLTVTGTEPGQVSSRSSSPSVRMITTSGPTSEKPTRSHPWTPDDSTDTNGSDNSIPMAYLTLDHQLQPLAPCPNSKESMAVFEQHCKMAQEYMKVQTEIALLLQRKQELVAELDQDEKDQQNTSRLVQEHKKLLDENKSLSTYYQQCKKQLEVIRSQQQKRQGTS
Chain of MAP3K7 TAB1 (human) (Q15750 whole entry, looked up): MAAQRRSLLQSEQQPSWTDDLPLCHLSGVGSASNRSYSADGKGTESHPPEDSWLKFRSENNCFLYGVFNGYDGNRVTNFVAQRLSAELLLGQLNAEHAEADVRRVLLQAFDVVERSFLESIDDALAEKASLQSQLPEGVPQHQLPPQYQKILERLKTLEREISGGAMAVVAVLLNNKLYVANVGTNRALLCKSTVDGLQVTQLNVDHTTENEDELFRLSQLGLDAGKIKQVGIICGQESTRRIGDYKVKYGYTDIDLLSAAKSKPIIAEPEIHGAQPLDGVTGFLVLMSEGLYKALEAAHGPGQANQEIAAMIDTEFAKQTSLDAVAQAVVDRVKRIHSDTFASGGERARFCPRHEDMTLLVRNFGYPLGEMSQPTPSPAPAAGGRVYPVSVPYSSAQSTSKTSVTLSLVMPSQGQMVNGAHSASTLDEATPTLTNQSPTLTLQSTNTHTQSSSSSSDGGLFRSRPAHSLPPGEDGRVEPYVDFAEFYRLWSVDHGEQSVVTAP

MAP3K9 (human) = MAP3K9 (human) (UniProt P80192)
MAPK12 (human) = MAPK12 (human) (UniProt P53778)
Chain of MAPK12 (human) (P53778 whole entry, looked up): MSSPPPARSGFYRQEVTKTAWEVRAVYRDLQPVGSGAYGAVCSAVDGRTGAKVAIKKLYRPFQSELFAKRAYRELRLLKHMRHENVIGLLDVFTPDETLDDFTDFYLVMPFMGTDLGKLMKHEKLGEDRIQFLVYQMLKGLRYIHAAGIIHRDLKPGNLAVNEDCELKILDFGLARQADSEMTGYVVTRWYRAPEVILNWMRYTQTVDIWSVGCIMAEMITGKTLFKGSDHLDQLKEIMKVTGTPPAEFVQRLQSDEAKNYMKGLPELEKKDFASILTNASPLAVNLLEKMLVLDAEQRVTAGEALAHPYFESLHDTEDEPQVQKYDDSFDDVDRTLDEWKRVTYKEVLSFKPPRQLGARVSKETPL

MAPK9 (human) = MAPK9 (human) (UniProt P45984)
MAPKAPK2 (human) = MAPKAPK2 (human) (UniProt P49137)
MARK1 (human) = MARK1 (human) (UniProt Q9P0L2)
MARK2 (human) = MARK2 (human) (UniProt Q7KZI7)
MARK4 (human) = MARK4 (human) (UniProt Q96L34)
Chain of MARK4 (human) (Q96L34 whole entry, looked up): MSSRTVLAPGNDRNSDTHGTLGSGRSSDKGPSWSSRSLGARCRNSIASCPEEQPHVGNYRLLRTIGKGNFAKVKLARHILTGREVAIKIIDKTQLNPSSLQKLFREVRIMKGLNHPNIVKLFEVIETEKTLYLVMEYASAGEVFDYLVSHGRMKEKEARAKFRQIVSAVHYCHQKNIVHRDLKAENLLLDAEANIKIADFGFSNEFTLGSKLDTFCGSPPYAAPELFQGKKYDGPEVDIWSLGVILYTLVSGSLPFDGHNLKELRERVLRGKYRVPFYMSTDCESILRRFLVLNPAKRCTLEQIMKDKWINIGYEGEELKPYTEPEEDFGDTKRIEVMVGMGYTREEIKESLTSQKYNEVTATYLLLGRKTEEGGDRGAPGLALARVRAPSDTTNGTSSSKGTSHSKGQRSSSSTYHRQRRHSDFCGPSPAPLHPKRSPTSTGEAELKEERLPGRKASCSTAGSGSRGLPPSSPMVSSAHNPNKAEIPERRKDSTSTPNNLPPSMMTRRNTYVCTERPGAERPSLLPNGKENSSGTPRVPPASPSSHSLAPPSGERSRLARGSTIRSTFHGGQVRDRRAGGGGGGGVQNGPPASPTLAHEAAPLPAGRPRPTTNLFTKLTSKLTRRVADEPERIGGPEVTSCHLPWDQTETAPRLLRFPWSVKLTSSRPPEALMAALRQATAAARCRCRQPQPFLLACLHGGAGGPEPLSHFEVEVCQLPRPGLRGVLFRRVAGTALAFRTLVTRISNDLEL

MELK (human) = MELK (human) (UniProt Q14680)
MST4 (human) = MST4 (human) (UniProt Q9P289)
Chain of MST4 (human) (Q9P289 whole entry, looked up): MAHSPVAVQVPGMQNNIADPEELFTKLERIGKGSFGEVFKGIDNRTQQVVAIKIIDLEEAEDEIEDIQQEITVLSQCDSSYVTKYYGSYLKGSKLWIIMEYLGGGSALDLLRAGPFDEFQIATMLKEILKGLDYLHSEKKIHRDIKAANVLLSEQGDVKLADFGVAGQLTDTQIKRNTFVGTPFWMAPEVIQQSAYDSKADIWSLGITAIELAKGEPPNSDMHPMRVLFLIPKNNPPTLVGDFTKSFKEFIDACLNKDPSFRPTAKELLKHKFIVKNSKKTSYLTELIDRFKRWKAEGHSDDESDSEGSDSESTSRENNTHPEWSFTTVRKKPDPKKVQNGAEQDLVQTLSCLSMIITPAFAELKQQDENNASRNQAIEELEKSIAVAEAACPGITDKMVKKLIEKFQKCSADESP

NTRK1 (human) = NTRK1 (human) (UniProt P04629)
NUAK1 (human) = NUAK1 (human) (UniProt O60285)
PAK4 (human) = PAK4 (human) (UniProt O96013)
PAK6 (human) = PAK6 (human) (UniProt Q9NQU5)
PIM1 (human) = PIM1 (human) (UniProt P11309)
PKN2 (human) = PKN2 (human) (UniProt Q16513)
PRKCA (human) = PRKCA (human) (UniProt P17252)
PRKCZ (human) = PRKCZ (human) (UniProt Q05513)
[2] = biological target: STK11 CAB39 STRADA (human) (UniProt Q9Y376+Q7RTN6+Q15831)

Chain of ERBB4 (human) (Q15303 whole entry, looked up): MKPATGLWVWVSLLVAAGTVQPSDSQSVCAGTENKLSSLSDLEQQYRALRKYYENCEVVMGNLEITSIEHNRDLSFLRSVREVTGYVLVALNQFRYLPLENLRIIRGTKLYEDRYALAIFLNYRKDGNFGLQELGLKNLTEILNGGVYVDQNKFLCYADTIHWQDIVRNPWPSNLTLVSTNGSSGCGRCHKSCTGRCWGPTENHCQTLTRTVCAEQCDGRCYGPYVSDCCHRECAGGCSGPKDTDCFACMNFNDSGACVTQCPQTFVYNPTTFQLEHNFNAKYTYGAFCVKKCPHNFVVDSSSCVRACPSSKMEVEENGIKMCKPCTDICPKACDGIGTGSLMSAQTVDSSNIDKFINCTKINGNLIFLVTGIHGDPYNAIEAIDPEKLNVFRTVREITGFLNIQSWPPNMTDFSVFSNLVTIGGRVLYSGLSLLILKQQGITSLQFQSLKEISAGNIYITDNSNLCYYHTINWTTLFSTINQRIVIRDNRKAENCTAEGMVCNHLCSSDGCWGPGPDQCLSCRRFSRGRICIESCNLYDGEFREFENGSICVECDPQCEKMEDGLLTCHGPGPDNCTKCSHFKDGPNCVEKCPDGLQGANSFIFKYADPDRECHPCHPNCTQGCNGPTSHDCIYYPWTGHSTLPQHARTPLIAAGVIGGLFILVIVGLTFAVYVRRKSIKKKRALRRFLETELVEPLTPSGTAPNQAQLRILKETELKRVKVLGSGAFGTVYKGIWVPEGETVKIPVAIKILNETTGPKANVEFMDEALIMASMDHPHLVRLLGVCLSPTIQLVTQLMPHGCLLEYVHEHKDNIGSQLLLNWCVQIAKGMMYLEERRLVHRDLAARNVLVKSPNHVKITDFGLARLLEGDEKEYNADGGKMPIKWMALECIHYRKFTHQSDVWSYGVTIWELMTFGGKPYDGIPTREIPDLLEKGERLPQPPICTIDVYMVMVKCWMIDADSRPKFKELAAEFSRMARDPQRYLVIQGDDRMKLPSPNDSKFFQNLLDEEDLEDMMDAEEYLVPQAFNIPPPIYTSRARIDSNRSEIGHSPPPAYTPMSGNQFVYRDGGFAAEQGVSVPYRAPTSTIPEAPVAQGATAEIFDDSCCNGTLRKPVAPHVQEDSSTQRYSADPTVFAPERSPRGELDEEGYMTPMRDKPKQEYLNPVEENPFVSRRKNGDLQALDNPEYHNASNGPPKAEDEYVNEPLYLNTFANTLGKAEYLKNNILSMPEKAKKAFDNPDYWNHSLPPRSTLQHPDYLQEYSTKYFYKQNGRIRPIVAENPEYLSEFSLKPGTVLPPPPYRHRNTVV

With `Cc1ccc(Sc2cnc(Nc3cccc(Br)n3)s2)cc1C(=O)N1CCN(C(=O)CN)CC1` the residual activity ([1]; compound 0.1 µM) was 105%, the residual activity ([1]; compound 1.0 µM) was 86% and the residual activity ([1]; compound 10.0 µM) was 53%. It also gave a residual activity (AURKA (human); compound 0.1 µM) of 3%, a residual activity (AURKA (human); compound 1.0 µM) of 3% and a residual activity (AURKA (human); compound 10.0 µM) of 0%. The residual activity (BRSK1 (human); compound 0.1 µM) was 82%, the residual activity (BRSK1 (human); compound 1.0 µM) was 81% and the residual activity (BRSK1 (human); compound 10.0 µM) was 41%. It also gave a residual activity (DYRK2 (human); compound 0.1 µM) of 101%, a residual activity (DYRK2 (human); compound 1.0 µM) of 87% and a residual activity (DYRK2 (human); compound 10.0 µM) of 80%. For the same compound, the residual activity (EEF2K (human); compound 0.1 µM) was 113%, the residual activity (EEF2K (human); compound 1.0 µM) was 96% and the residual activity (EEF2K (human); compound 10.0 µM) was 92%. For the same compound, the residual activity (EPHA2 (human); compound 0.1 µM) was 46%, the residual activity (EPHA2 (human); compound 1.0 µM) was 36% and the residual activity (EPHA2 (human); compound 10.0 µM) was 13%. For the same compound, the residual activity (EPHB3 (human); compound 0.1 µM) was 22%, the residual activity (EPHB3 (human); compound 1.0 µM) was 20% and the residual activity (EPHB3 (human); compound 10.0 µM) was 6%. It also gave a residual activity (ERBB4 (human); compound 0.1 µM) of 69%, a residual activity (ERBB4 (human); compound 1.0 µM) of 64% and a residual activity (ERBB4 (human); compound 10.0 µM) of 51%. The residual activity (GSK3B (human); compound 0.1 µM) was 46%, the residual activity (GSK3B (human); compound 1.0 µM) was 41% and the residual activity (GSK3B (human); compound 10.0 µM) was 37%. For the same compound, the residual activity (HIPK3 (human); compound 0.1 µM) was 30%, the residual activity (HIPK3 (human); compound 1.0 µM) was 31% and the residual activity (HIPK3 (human); compound 10.0 µM) was 17%. The residual activity (INSR (human); compound 0.1 µM) was 19%, the residual activity (INSR (human); compound 1.0 µM) was 14% and the residual activity (INSR (human); compound 10.0 µM) was 1%. For the same compound, the residual activity (IRAK4 (human); compound 0.1 µM) was 5%, the residual activity (IRAK4 (human); compound 1.0 µM) was 3% and the residual activity (IRAK4 (human); compound 10.0 µM) was 2%. For the same compound, the residual activity (MAP2K2 (human); compound 0.1 µM) was 86%, the residual activity (MAP2K2 (human); compound 1.0 µM) was 77% and the residual activity (MAP2K6 (human); compound 0.1 µM) was 94%. It also gave a residual activity (MAP2K6 (human); compound 1.0 µM) of 95%, a residual activity (MAP3K1 (human); compound 0.1 µM) of 46% and a residual activity (MAP3K1 (human); compound 1.0 µM) of 35%. For the same compound, the residual activity (MAP3K1 (human); compound 10.0 µM) was 5%, the residual activity (MAP3K11 (human); compound 0.1 µM) was 84% and the residual activity (MAP3K11 (human); compound 1.0 µM) was 77%. The residual activity (MAP3K11 (human); compound 10.0 µM) was 51%, the residual activity (MAP3K5 (human); compound 0.1 µM) was 106% and the residual activity (MAP3K5 (human); compound 1.0 µM) was 101%. The residual activity (MAP3K7 TAB1 (human); compound 0.1 µM) was 107%, the residual activity (MAP3K7 TAB1 (human); compound 1.0 µM) was 84% and the residual activity (MAP3K7 TAB1 (human); compound 10.0 µM) was 27%. It also gave a residual activity (MAP3K9 (human); compound 0.1 µM) of 78%, a residual activity (MAP3K9 (human); compound 1.0 µM) of 69% and a residual activity (MAP3K9 (human); compound 10.0 µM) of 17%. For the same compound, the residual activity (MAPK12 (human); compound 0.1 µM) was 77%, the residual activity (MAPK12 (human); compound 1.0 µM) was 80% and the residual activity (MAPK12 (human); compound 10.0 µM) was 45%. The residual activity (MAPK9 (human); compound 0.1 µM) was 98%, the residual activity (MAPK9 (human); compound 1.0 µM) was 94% and the residual activity (MAPK9 (human); compound 10.0 µM) was 54%. For the same compound, the residual activity (MAPKAPK2 (human); compound 0.1 µM) was 98%, the residual activity (MAPKAPK2 (human); compound 1.0 µM) was 86% and the residual activity (MAPKAPK2 (human); compound 10.0 µM) was 80%. For the same compound, the residual activity (MARK1 (human); compound 0.1 µM) was 70%, the residual activity (MARK1 (human); compound 1.0 µM) was 78% and the residual activity (MARK1 (human); compound 10.0 µM) was 58%. The residual activity (MARK2 (human); compound 0.1 µM) was 81%, the residual activity (MARK2 (human); compound 1.0 µM) was 87% and the residual activity (MARK2 (human); compound 10.0 µM) was 44%. For the same compound, the residual activity (MARK4 (human); compound 0.1 µM) was 101%, the residual activity (MARK4 (human); compound 1.0 µM) was 118% and the residual activity (MARK4 (human); compound 10.0 µM) was 43%. For the same compound, the residual activity (MELK (human); compound 0.1 µM) was 42%, the residual activity (MELK (human); compound 1.0 µM) was 15% and the residual activity (MELK (human); compound 10.0 µM) was 5%. It also gave a residual activity (MST4 (human); compound 0.1 µM) of 50%, a residual activity (MST4 (human); compound 1.0 µM) of 50% and a residual activity (MST4 (human); compound 10.0 µM) of 17%. The residual activity (NTRK1 (human); compound 0.1 µM) was 14%, the residual activity (NTRK1 (human); compound 1.0 µM) was 19% and the residual activity (NTRK1 (human); compound 10.0 µM) was 4%. The residual activity (NUAK1 (human); compound 0.1 µM) was 40%, the residual activity (NUAK1 (human); compound 1.0 µM) was 37% and the residual activity (NUAK1 (human); compound 10.0 µM) was 7%. The residual activity (PAK4 (human); compound 0.1 µM) was 69%, the residual activity (PAK4 (human); compound 1.0 µM) was 67% and the residual activity (PAK4 (human); compound 10.0 µM) was 20%. The residual activity (PAK6 (human); compound 0.1 µM) was 71%, the residual activity (PAK6 (human); compound 1.0 µM) was 72% and the residual activity (PAK6 (human); compound 10.0 µM) was 27%. For the same compound, the residual activity (PIM1 (human); compound 0.1 µM) was 54%, the residual activity (PIM1 (human); compound 1.0 µM) was 49% and the residual activity (PIM1 (human); compound 10.0 µM) was 11%. It also gave a residual activity (PKN2 (human); compound 0.1 µM) of 80%, a residual activity (PKN2 (human); compound 1.0 µM) of 78% and a residual activity (PKN2 (human); compound 10.0 µM) of 32%. The residual activity (PRKCA (human); compound 0.1 µM) was 41%, the residual activity (PRKCA (human); compound 1.0 µM) was 45% and the residual activity (PRKCA (human); compound 10.0 µM) was 11%. The residual activity (PRKCZ (human); compound 0.1 µM) was 104%, the residual activity (PRKCZ (human); compound 1.0 µM) was 98% and the residual activity (PRKCZ (human); compound 10.0 µM) was 58%. The residual activity ([2]; compound 0.1 µM) was 64%, the residual activity ([2]; compound 1.0 µM) was 62% and the residual activity ([2]; compound 10.0 µM) was 8%.

From the kinase profiling compilation of Christmann-Franck et al. (2016)
